{
  "source": "paper PMC7642425",
  "about": "“Engineering cofactor supply and NADH-dependent D-galacturonic acid reductases for redox-balanced production of L-galactonate in Saccharomyces cerevisiae” (Scientific Reports, 2020)",
  "key": {"AnGar1 [1]": {"target": "T1, AnGar1 (Aspergillus niger, UniProt A2R7U3)", "T1 construct": "gene An16g04770; synthetic ORF codon optimized for S. cerevisiae; expressed from plasmid in yeast CEN.PK2-1C, clear crude extract assayed against empty-vector control", "T1 sequence (A2R7U3 1-319)": "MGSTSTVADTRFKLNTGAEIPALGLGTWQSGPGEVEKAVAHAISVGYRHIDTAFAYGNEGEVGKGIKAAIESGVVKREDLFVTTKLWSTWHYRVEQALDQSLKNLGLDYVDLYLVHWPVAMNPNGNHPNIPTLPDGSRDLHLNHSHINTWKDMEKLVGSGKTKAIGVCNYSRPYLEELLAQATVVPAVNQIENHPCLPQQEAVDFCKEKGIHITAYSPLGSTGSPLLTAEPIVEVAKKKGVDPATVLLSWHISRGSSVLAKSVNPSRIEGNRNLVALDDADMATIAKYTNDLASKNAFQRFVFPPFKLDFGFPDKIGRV", "experiment": "NADH oxidation at […] nm, yeast crude extract", "format": "biochemical", "conditions": "160 or 800 uM NADH, 100 mM GalA, 10 mM potassium phosphate pH 7.2; competitive"}, "AnGar1 [2]": {"target": "T1, AnGar1", "experiment": "NADPH oxidation at […] nm, yeast crude extract", "format": "biochemical", "conditions": "100 mM GalA, 160 or 800 uM NADPH, 10 mM potassium phosphate pH 7.2"}, "AnGaaA": {"target": "T2, AnGaaA (Aspergillus niger, UniProt A8DRH9)", "T2 construct": "gene gaaA; synthetic ORF codon optimized for S. cerevisiae; expressed from multicopy plasmid in yeast; whole-cell conversion", "T2 sequence (A8DRH9 1-412)": "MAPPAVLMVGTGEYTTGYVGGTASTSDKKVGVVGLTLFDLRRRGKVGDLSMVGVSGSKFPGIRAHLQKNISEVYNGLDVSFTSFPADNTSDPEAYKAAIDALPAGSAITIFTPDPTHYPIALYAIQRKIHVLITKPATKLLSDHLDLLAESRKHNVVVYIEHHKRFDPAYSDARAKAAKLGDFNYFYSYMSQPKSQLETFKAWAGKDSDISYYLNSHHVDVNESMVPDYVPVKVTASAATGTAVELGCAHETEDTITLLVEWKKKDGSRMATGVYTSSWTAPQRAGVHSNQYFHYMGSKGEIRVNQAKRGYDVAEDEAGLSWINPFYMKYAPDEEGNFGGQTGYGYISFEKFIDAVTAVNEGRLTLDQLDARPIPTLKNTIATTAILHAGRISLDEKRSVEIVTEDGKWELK", "experiment": "HPLC of L-galactonate in cultures of expressing yeast", "format": "cell-based", "conditions": "whole cells, sorbitol co-substrate, YlSdr supplying NADPH, pH 6.3, 30 °C"}, "AnGar1 [3]": {"target": "T1, AnGar1", "experiment": "NAD(P)H oxidation at […] nm, yeast crude extract; HPLC of L-galactonate in cultures", "format": "biochemical", "conditions": "100 mM GalA, NADPH, 10 mM potassium phosphate pH 7.2"}, "TrGar1": {"target": "T3, TrGar1 (Trichoderma reesei, UniProt Q3ZFI7)", "T3 construct": "gene gar1; synthetic ORF codon optimized for S. cerevisiae; expressed in yeast strains co-expressing GatA, Hxt13 and sorbitol dehydrogenase; whole-cell conversion", "T3 sequence (Q3ZFI7 1-309)": "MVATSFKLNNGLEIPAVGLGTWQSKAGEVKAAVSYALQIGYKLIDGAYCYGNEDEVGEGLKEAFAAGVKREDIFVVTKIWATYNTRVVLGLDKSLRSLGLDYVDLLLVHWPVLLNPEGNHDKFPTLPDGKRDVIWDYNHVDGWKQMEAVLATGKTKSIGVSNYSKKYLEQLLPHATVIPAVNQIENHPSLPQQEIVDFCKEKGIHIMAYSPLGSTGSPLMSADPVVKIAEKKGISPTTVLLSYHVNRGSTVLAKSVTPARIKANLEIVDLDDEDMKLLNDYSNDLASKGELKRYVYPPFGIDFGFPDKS", "experiment": "HPLC of L-galactonate in cultures of expressing yeast", "format": "cell-based", "conditions": "whole cells, sorbitol co-substrate, YlSdr supplying NADPH, pH 6.3, 30 °C"}},
  "data": [
    {"smiles": "NC(=O)c1ccc[n+]([C@@H]2O[C@H](COP(=O)(O)OP(=O)(O)OC[C@H]3O[C@@H](n4cnc5c(N)ncnc54)[C@H](OP(=O)(O)O)[C@@H]3O)[C@@H](O)[C@H]2O)c1", "note": "[NADP]", "values": [
      {"measurement": "relative activity (% of activity without NADP)", "setting": "AnGar1 [1]", "value": "when NADP was added to competitively inhibit NADH binding, only the mutants were able"}
    ]},
    {"smiles": "NC(=O)C1=CN([C@@H]2O[C@H](COP(=O)(O)OP(=O)(O)OC[C@H]3O[C@@H](n4cnc5c(N)ncnc54)[C@H](OP(=O)(O)O)[C@@H]3O)[C@@H](O)[C@H]2O)C=CC1", "note": "[NADPH]", "values": [
      {"measurement": "NADPH oxidation at 340 nm, yeast crude extract", "setting": "AnGar1 [2]", "value": "lower compared to those with NADPH of the wildtype enzyme"}
    ]},
    {"smiles": "O=C(O)[C@H]1OC(O)[C@H](O)[C@@H](O)[C@H]1O", "note": "(stereo partly drawn) [D-galacturonic acid]", "values": [
      {"measurement": "HPLC of L-galactonate in cultures of expressing yeast", "setting": "AnGaaA", "value": "The lower titers observed with AnGaaA in comparison to TrGar1"},
      {"measurement": "NAD(P)H oxidation at 340 nm, yeast crude extract; HPLC of L-galactonate in cultu", "setting": "AnGar1 [3]", "value": "we demonstrate, for the first time, the activity of AnGar1 as a GalA reductase"},
      {"measurement": "HPLC of L-galactonate in cultures of expressing yeast", "setting": "TrGar1", "value": "Wildtype TrGar1 and AnGar1 produce comparable amount of GalOA"}
    ]}
  ]
}
